Data on eleven compounds can be found in patent publication US9518018B2, “3-alkoxy, thioalkyl and amino-4-amino-6-(substituted)picolinates and their use as herbicides” (Dow AgroSciences LLC, priority 2011, dated 2016).

What all share (test): Post-Emergent Test I herbicidal activity
What all share (type): in vivo

The test system of assay [1] is ORYSA: rice (Oryza sativa). To be noted: post-emergence, 336 h, read-out: Visual Growth Reduction (%)-14 Days after Application ORYSA; for pest or weed control at 140 g/ha: Table 3, 140 g ai/ha; for pest or weed control at 280 g/ha: Table 3, 280 g ai/ha; for pest or weed control at 70 g/ha: Table 3, 70 g ai/ha. As for the experimental part: (§1) Seeds or nutlets of the desired test plant species were planted in Sun Gro Metro-Mix® 360 planting mixture, which typically has a pH of 6.0 to 6.8 and an organic matter content of about 30 percent, in plastic pots with a surface area of 64 square centimeters. When required to ensure good germination and healthy plants, a fungicide treatment and/or other chemical or physical treatment was applied. The plants were grown for 7-21 d in a greenhouse with an approximate 15 h photoperiod which was maintained at about 23-29° C. during the day and 22-28° C. during the night. Nutrients and water were added on a regular basis and supplemental lighting was provided with overhead metal halide 1000-Watt lamps as necessary. The plants were employed for testing when they reached the first or second true leaf stage.
(§2) A weighed amount, determined by the highest rate to be tested, of each test compound was placed in a 25 mL glass vial and was dissolved in 4 mL of a 97:3 v/v mixture of acetone and DMSO to obtain concentrated stock solutions. […] The concentrated stock solutions obtained were diluted with 20 mL of an aqueous mixture containing acetone, water, isopropyl alcohol, DMSO, Atplus 411F crop oil concentrate, and Triton® X-155 surfactant in a 48.5:39:10:1.5:1.0:0.02 v/v ratio to obtain spray solutions containing the highest application rates. Additional application rates were obtained by serial dilution of 12 mL of the high rate solution into a solution containing 2 mL of 97:3 v/v mixture of acetone and DMSO and 10 mL of an aqueous mixture containing acetone, water, isopropyl alcohol, DMSO, Atplus 411F crop oil concentrate, and Triton X-155 surfactant in a 48.5:39:10:1.5:1.0:0.02 v/v ratio to obtain ½×, ¼×, ⅛× and 1/16× rates of the high rate. Compound requirements are based upon a 12 mL application volume at a rate of 187 liters per hectare (L/ha). Formulated compounds were applied to the plant material with an overhead Mandel track sprayer equipped with 8002E nozzles calibrated to deliver 187 L/ha over an application area of 0.503 square meters at a spray height of 18 inches (43 cm) above the average plant canopy height. Control plants were sprayed in the same manner with the solvent blank.
(§3) The treated plants and control plants were placed in a greenhouse as described above and watered by subirrigation to prevent wash-off of the test compounds. After 14 d, the condition of the test plants as compared with that of the untreated plants was determined visually and scored on a scale of 0 to 100 percent where 0 corresponds to no injury and 100 corresponds to complete kill.
(§4) By applying the well-accepted probit analysis as described by J. Berkson in Journal of the […], 48, 565 (1953) and by D. Finney in “Probit Analysis” Cambridge University Press (1952), the above data can be used to calculate GR20, GR50 and GR80 values, which are defined as growth reduction factors that correspond to the effective dose of herbicide required to kill or control 20 percent, 50 percent or 80 percent, respectively, of a target plant.

For assay [2], the system named is CHEAL: lambsquarters (Chenopodium album). To be noted: Chenopodium album, post-emergence, 336 h, read-out: Visual Growth Reduction (%)-14 Days after Application CHEAL; for pest or weed control at 140 g/ha: Table 3, 140 g ai/ha; for pest or weed control at 280 g/ha: Table 3, 280 g ai/ha; for pest or weed control at 70 g/ha: Table 3, 70 g ai/ha. As for the experimental part:
as §1, §2, §3, §4

For assay [3], the system named is CYPES: yellow nutsedge (Cyperus esculentus). The following applies: post-emergence, 336 h, read-out: Visual Growth Reduction (%)-14 Days after Application CYPES; for pest or weed control at 140 g/ha: Table 3, 140 g ai/ha; for pest or weed control at 280 g/ha: Table 3, 280 g ai/ha; for pest or weed control at 70 g/ha: Table 3, 70 g ai/ha. As for the experimental part:
as §1, §2, §3, §4

Assay [4] concerns ECHCG: barnyardgrass (Echinochloa crus-galli). To be noted: post-emergence, 336 h, read-out: Visual Growth Reduction (%)-14 Days after Application ECHCG; for pest or weed control at 140 g/ha: Table 3, 140 g ai/ha; for pest or weed control at 280 g/ha: Table 3, 280 g ai/ha; for pest or weed control at 70 g/ha: Table 3, 70 g ai/ha. Here is the method:
as §1, §2, §3, §4

Assay [5] has as its system EPHHL: wild poinsettia (Euphorbia heterophylla). The following applies: post-emergence, 336 h, read-out: Visual Growth Reduction (%)-14 Days after Application EPHHL; for pest or weed control at 140 g/ha: Table 3, 140 g ai/ha; for pest or weed control at 280 g/ha: Table 3, 280 g ai/ha; for pest or weed control at 70 g/ha: Table 3, 70 g ai/ha. Here is the method: as §1, §2, §3, §4

For assay [6], the system named is ABUTH: velvetleaf (Abutilon theophrasti). To be noted: Abutilon theophrasti, post-emergence, 336 h, read-out: Visual Growth Reduction (%)-14 Days after Application ABUTH; for pest or weed control at 140 g/ha: Table 3, 140 g ai/ha; for pest or weed control at 280 g/ha: Table 3, 280 g ai/ha; for pest or weed control at 70 g/ha: Table 3, 70 g ai/ha. As for the experimental part: as §1, §2, §3, §4

A further assay relates to ZEAMX: corn (Zea mays). The following applies: Zea mays, post-emergence, 336 h, read-out: Visual Growth Reduction (%)-14 Days after Application ZEAMX; for pest or weed control at 140 g/ha: Table 3, 140 g ai/ha; for pest or weed control at 280 g/ha: Table 3, 280 g ai/ha; for pest or weed control at 70 g/ha: Table 3, 70 g ai/ha. Here is the method:
as §1, §2, §3, §4

For `COC(=O)c1nc(-c2ccc(Cl)c(OC)c2F)cc(NC(C)=O)c1OC` [Compound 3, methyl 4-acetamido-6-(4-chloro-2-fluoro-3-methoxyphenyl)-3-methoxypicolinate], the pest or weed control at 140 g/ha is 0% in assay [1]; 100% in assay [2]; 0% in assay [3]; 0% in assay [4]; 100% in assay [5]; 100% in assay [6]. Also, the pest or weed control at 140 g/ha in the assay with ZEAMX: corn (Zea mays) came out at 10%.

Regarding `COC(=O)c1nc(-c2ccc(Cl)cc2F)cc(NC(C)=O)c1OC` [Compound 4, Methyl 4-acetamido-6-(4-chloro-2-fluorophenyl)-3-methoxypicolinate], the pest or weed control at 140 g/ha worked out at 0% in assay [1]; 100% in assay [2]; 0% in assay [3]; 0% in assay [4]; 100% in assay [5]; 80% in assay [6]. Also, the pest or weed control at 140 g/ha in the assay on ZEAMX: corn (Zea mays) worked out at 0%.

For the compound `COC(=O)c1nc(-c2ccc(Cl)cc2)cc(N)c1OC` [Compound 7, methyl 4-amino-6-(4-chlorophenyl)-3-methoxypicolinate], the pest or weed control at 140 g/ha in assay [1] turned out to be 0%; in assay [2], 100%; in assay [3], 0%; in assay [4], 0%; in assay [5], 95%; in assay [6], 90%. In addition, the pest or weed control at 140 g/ha in the assay on ZEAMX: corn (Zea mays) was 0%.

Consider `CCOC(=O)c1nc(-c2ccc(Cl)c(OC)c2F)cc(N)c1OC(F)F` [Compound 8, ethyl 4-amino-6-(4-chloro-2-fluoro-3-methoxyphenyl)-3-(difluoromethoxy)picolinate], for which the pest or weed control at 280 g/ha was determined as 0% in assay [1]; 30% in assay [2]; 0% in assay [3]; 0% in assay [4]; 90% in assay [5]; 25% in assay [6]. For the same compound, the pest or weed control at 280 g/ha in the assay on ZEAMX: corn (Zea mays) is 0%.

On to `COC(=O)c1nc(Cl)c(F)c(N)c1OC` [Compound 10, methyl 4-amino-6-chloro-5-fluoro-3-methoxypicolinate], for which the pest or weed control at 280 g/ha in assay [1] worked out at 0%; in assay [2], 100%; in assay [3], 0%; in assay [4], 0%; in assay [5] it was 100%; in assay [6] it was 100%. Besides, the pest or weed control at 280 g/ha in the assay on ZEAMX: corn (Zea mays) was determined as 25%.

Consider `COc1c(C(=O)O)nc(-c2ccc(C(F)(F)F)c(F)c2)c(F)c1N` [Compound 11, 4-amino-5-fluoro-6-(3-fluoro-4-(trifluoromethyl)phenyl)-3-methoxypicolinic acid], for which the pest or weed control at 140 g/ha in assay [1] was 12%; in assay [2] it was 100%; in assay [3] it was 50%; in assay [4] it was 100%; in assay [5], 100%; in assay [6] it was 100%. Also, the pest or weed control at 140 g/ha with ZEAMX: corn (Zea mays) was found to be 80%.

On to `C=Cc1nc(C(=O)OC)c(OC)c(N)c1F` [Compound 12, methyl 4-amino-5-fluoro-3-methoxy-6-vinylpicolinate], for which the pest or weed control at 280 g/ha is 0% in assay [1]; 70% in assay [2]; 0% in assay [3]; 0% in assay [4]; 0% in assay [5]; 0% in assay [6]. Moreover, the pest or weed control at 280 g/ha with ZEAMX: corn (Zea mays) is 0%.

Take `COC(=O)c1nc(-c2ccc(Br)c(F)c2F)c(F)c(N)c1OC` [Compound 19, methyl 4-amino-6-(4-bromo-2,3-difluorophenyl)-5-fluoro-3-methoxypicolinate]: the pest or weed control at 70 g/ha in assay [1] is 0%; in assay [2], 100%; in assay [3] it was 90%; in assay [4], 75%; in assay [5], 100%; in assay [6], 85%. Further, in the assay on ZEAMX: corn (Zea mays), the pest or weed control at 70 g/ha was 70%.

On to `COC(=O)c1nc(-c2ccc(Br)c(F)c2)c(F)c(N)c1OC` [Compound 21], for which the pest or weed control at 70 g/ha in assay [1] stood at 0%; in assay [2], 100%; in assay [3], 70%; in assay [4] it was 50%; in assay [5], 100%; in assay [6], 85%. The pest or weed control at 70 g/ha in the assay on ZEAMX: corn (Zea mays) is 50%.

Regarding `COC(=O)c1nc(-c2ccc(Br)cc2F)c(F)c(N)c1OC` [Compound 22], the pest or weed control at 140 g/ha was 0% in assay [1]; 100% in assay [2]; 50% in assay [3]; 90% in assay [4]; 100% in assay [5]; 60% in assay [6]. The pest or weed control at 140 g/ha in the assay with ZEAMX: corn (Zea mays) amounted to 70%.

For `COC(=O)c1nc(-c2ccc(I)cc2)c(F)c(N)c1OC` [Compound 23, methyl 4-amino-5-fluoro-6-(4-iodophenyl)-3-methoxypicolinate], the pest or weed control at 140 g/ha was determined as 0% in assay [1]; 100% in assay [2]; 100% in assay [3]; 80% in assay [4]; 100% in assay [5]; 70% in assay [6]. Moreover, the pest or weed control at 140 g/ha with ZEAMX: corn (Zea mays) came out at 70%.
